Source: patent US20030105048A1, “Oligobenzimidazole derivatives and their use as DNA transfecting agents” (priority 1999, published 2003)

Assays:
[1] = system: DNA plasmid; assay: Agarose gel electrophoresis of DNA plasmid complexed with derivative or cationic lipid; assay type: binding; details: increasing amounts per μg of DNA; revealed with ethidium bromide
Procedure: For this, an agarose gel of a DNA plasmid mixed with increasing amounts of derivative (1) or (2) according to the invention was prepared (see FIG. 4). […] Two bands could thus be observed by virtue of the specific spectral absorption properties of the derivatives according to the present invention:
It is observed that the DNA migrates in an identical manner to the naked DNA, irrespective of the concentration of derivative 20 according to the invention.

[2] = system: mouse muscles; assay: In vivo intramuscular transfection of plasmid pXL3031 (luciferase expression) with or without electrotransfer; parameters: species or system C57B16 mice; details: 4 μg of DNA/muscle, 7 days
Procedure: The plasmid used is the same as the one described above for Example 5 (pXL3031). Similarly, the cytofecting solutions are prepared in the same way as in Example 5.
25 μl of solutions of derivative (1)/DNA complexes are injected intramuscularly to C57B16 mice, at a rate of 4 μg of DNA/mouse muscle.
The transfection efficacy is evaluated 7 days 5 after transfection by measuring the expression of luciferase according to the recommendations given for using the Promega kit (Luciferase Assay System). The muscles are ground in 1.5 ml of lysis buffer (with protease inhibitors). After assaying the luciferase activity on 10 μl, the results are expressed as RLU/10 μl/10 sec.
The in vivo luciferase activity results in mouse muscles, expressed in RLU/10 μl/10 sec, are collated in the table below: […]

[3] = system: HeLa cells; assay: In vitro transfection of plasmid pXL3031 (luciferase expression) in the presence and absence of serum; assay type: cell-based; details: 48 hours after transfection
Procedure: The plasmid used The DNA used is the plasmid pXL3031 (see FIG. 7) as a solution in a mixture of 5% dextrose and 10 mM sodium chloride at a concentration of 0.5 mg/ml or 1.0 mg/ml. This plasmid contains the luc gene encoding luciferase under the control of the cytomegalovirus P/E CMV promoter. Its size is 3671 bp. The plasmid pXL3031 was purified according to the methods described in patent application WO 97/35002.
The nucleic acid solutions are diluted to 20 μg/ml in physiological saline (0.15 M sodium chloride).
The oligobenzimidazole derivative (2) according to the invention is dissolved in water to a concentration ranging from 40 to 160 μmol and mixed, volume for volume, with the DNA solution. The final saline concentration is 75 mmol.
HeLa cells are cultured under suitable conditions on 24-well microplates (2 cm^2/well) and are transfected while they are in the exponential growth phase and at 50-70% of confluence.
The cells are washed with twice 0.5 cm^3 of medium free of seric proteins and are regrown either in serum-free medium (transfection in the absence of serum) or in whole medium (transfection in the presence of serum). 0.05 cm^3 of cytofecting mixture (0.5 μg of DNA/well) are added to the cells (3 wells/DNA-vector condition). When the cells are transfected in the absence of serum, the growth medium is supplemented, 2 hours after the transfection, with a suitable amount of serum.
The transfecting efficacy is evaluated 48 hours after transfection by measuring the expression of luciferase according to the recommendations given for using the Promega kit (“Luciferase Assay System”). The toxicity of the cytofecting mixtures is estimated by measuring the protein concentrations in cell lysates.
The in vitro luciferase activity results relative to the proteins expressed in RLU/5 μl/10 s/μg of protein (written more simply as RLU/μg of protein, “RLU” meaning “relative light unit”) are given in the table below: […]

Structure (SMILES): CCCCCCCCCCCCCCN(CCCCCCCCCCCCCC)C(=O)CNC(=O)CNCCN(CCN)CCN [cationic lipid, reference compound]
- electrophoretic mobility of complexes with DNA on agarose gel [1]: varies with the amount of cationic lipid present with the DNA

Structure (SMILES): CCCCCCCCCCCCCCCCCCNC(=O)Oc1ccc(-c2nc3ccc(-c4nc5ccc(N6CCN(C)CC6)cc5[nH]4)cc3[nH]2)cc1 [Derivative (1), 4-[6-(4-methyl-1-piperazinyl)-1H,3′H-[2,5′]bisbenzimidazol-2′-yl]-1-octadecylcarbamoyloxy phenyl]
- electrophoretic mobility of complexes with DNA on agarose gel [1]: same electrophoretic mobility properties as the naked DNA
- in vivo luciferase activity in mouse muscles ([2]; 0.2 nmol/μg of DNA, with electrotransfer): 1.14 E+07 RLU/10 μl/10 sec
- in vivo luciferase activity in mouse muscles ([2]; 0.2 nmol/μg of DNA, without electrotransfer): 3.45 E+04 RLU/10 μl/10 sec
- in vivo luciferase activity in mouse muscles ([2]; 0.5 nmol/μg of DNA, with electrotransfer): 2.19 E+07 RLU/10 μl/10 sec
- in vivo luciferase activity in mouse muscles ([2]; 0.5 nmol/μg of DNA, without electrotransfer): 1.67 E+04 RLU/10 μl/10 sec
- in vivo luciferase activity in mouse muscles ([2]; 1 nmol/μg of DNA, with electrotransfer): 1.82 E+07 RLU/10 μl/10 sec
- in vivo luciferase activity in mouse muscles ([2]; 1 nmol/μg of DNA, without electrotransfer): 1.06 E+04 RLU/10 μl/10 sec

Structure (SMILES): CCCCCCCCCCCCNC(=O)Oc1ccc(-c2nc3ccc(-c4nc5ccc(N6CCN(C)CC6)cc5[nH]4)cc3[nH]2)cc1 [Derivative (2), 4-[6-(4-methyl-1-piperazinyl)-1H,3′H-[2,5′]bisbenzimidazol-2′-yl]-1-dodecylcarbamoyloxy phenyl]
- electrophoretic mobility of complexes with DNA on agarose gel [1]: same electrophoretic mobility properties as the naked DNA
- in vitro luciferase activity ([3]; 4 nmol/μg of DNA, + serum): 9.8 E+02 RLU/μg of protein
- in vitro luciferase activity ([3]; 4 nmol/μg of DNA, absence of serum): 1.3 E+03 RLU/μg of protein
- in vitro luciferase activity ([3]; 8 nmol/μg of DNA, + serum): 4.6 E+02 RLU/μg of protein
- in vitro luciferase activity ([3]; 8 nmol/μg of DNA, absence of serum): 1.7 E+03 RLU/μg of protein
- in vitro luciferase activity ([3]; 10 nmol/μg of DNA, + serum): 1.1 E+02 RLU/μg of protein
- in vitro luciferase activity ([3]; 10 nmol/μg of DNA, absence of serum): 1.7 E+03 RLU/μg of protein
